Where “and” joins values, the source holds several entries; their conditions need not be identical. Equal values may be shown once. Read-outs that look alike come from different tables or passages of the source. Blank lines part the entries; values can stand above or below the compound they belong to.
Tests used:
Format in all cases: biochemical
[1] = target: T1, VvGT15b (Vitis vinifera, UniProt F6GUW0); assay: Substrate screening, radiochemical activity assay with UDP-[14C]glucose; conditions: for conversion of putative substrate (in words): substrate screening, Figure 3
T1 sequence (F6GUW0 entry or part of it): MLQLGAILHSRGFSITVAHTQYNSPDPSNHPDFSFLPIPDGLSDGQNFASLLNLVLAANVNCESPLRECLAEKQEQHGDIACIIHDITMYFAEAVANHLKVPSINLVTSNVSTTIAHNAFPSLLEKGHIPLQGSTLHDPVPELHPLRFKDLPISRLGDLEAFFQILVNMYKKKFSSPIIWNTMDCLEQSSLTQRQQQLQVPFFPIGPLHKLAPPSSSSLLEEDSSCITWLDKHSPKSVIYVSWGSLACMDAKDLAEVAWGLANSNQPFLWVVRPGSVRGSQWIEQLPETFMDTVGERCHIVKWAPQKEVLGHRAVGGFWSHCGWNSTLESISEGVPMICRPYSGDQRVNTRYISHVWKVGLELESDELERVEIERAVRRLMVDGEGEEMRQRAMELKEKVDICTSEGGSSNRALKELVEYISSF
Protocol: (§1) In the initial screening, each reaction mixture (200 µL in total) contained Tris-HCl buffer (100 mM, pH 8, 10 mM 2-mercaptoethanol), 37 pmol UDP-[^14C]glucose (0.01 µCi, Biotrend, Köln, Germany), substrate (50 µL of a 1 mg/mL stock solution) and purified protein (0.5-0.8 µg/µL). The reaction mixture was incubated at 30 °C for 18.5 hours. The assays were stopped by adding 1 µL 24% trichloroacetic acid and extracted with 500 µL water-saturated 1-butanol. The organic phase was mixed with 2 mL Pro Flow P+ cocktail (Meridian Biotechnologies Ltd., Epsom, UK) and radioactivity was determined by liquid scintillation counting (LSC, Tri-Carb 2800TR, Perkin Elmer, Waltham MA, USA). Additionally, negative controls without substrate were performed.
(§2) After determining the optimal conditions for the best substrate of each gene, the substrate screening was repeated under these conditions.
(§3) The alleles of VvGT14a-c, 15a-c and 16 were isolated from V. vinifera cultivars and cloned in the expression vector pGEX-4T-1. The recombinant proteins were expressed with an N-terminal GST-tag, affinity purified and verified by SDS-PAGE and Western Blot using GST-specific antibody. Enzyme activity studies were performed with UDP-[^14C]glucose and various putative substrates (terpenols, flavonoids and different mono-alcohols) that are known to be glycosidically bound and present in grapes (Gunata et al., 1988).

[2] = target: T2, VvGT14a (Vitis vinifera, UniProt F6H0R6); assay: as above; conditions: for relative specific activity: relative to conversion of geraniol (100 %), extractable radioactivity; for conversion of putative substrate (in words): substrate screening, Figure 3
T2 sequence (F6H0R6 entry or part of it): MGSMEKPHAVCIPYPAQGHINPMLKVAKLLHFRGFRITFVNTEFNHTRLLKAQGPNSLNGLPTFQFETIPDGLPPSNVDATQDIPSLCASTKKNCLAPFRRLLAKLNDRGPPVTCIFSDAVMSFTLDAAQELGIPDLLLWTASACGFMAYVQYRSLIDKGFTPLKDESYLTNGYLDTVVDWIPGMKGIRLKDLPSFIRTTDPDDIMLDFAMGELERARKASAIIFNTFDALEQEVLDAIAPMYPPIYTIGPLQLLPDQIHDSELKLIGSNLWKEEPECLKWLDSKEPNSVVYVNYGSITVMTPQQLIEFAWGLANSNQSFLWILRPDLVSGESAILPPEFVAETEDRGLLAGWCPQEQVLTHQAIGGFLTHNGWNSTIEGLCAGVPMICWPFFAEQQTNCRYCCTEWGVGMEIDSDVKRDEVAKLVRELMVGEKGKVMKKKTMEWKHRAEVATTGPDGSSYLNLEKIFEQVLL
Protocol: as §1, §2, §3

[3] = target: T3, VvGT15a (Vitis vinifera, UniProt F6GUW0); assay: as above; conditions: for conversion of putative substrate (in words): substrate screening, Figure 3
T3 sequence (F6GUW0 entry or part of it): as the sequence (F6GUW0 entry or part of it) above
Protocol: as §1, §2, §3

[4] = target: T4, VvGT15c (Vitis vinifera, UniProt F6GUW0); assay: as above; conditions: for conversion of putative substrate (in words): substrate screening, Figure 3
T4 sequence (F6GUW0 entry or part of it): as above
Protocol: as §1, §2, §3

[5] = target: T5, VvGT16 (Vitis vinifera, UniProt F6HTJ4); assay: as above; conditions: for conversion of putative substrate (in words): substrate screening, Figure 3; for efficiency of transformation of R- and S-citronellol (in words): radiochemical assays, Figure 12; for relative specific activity: relative to conversion of benzyl alcohol (100 %), extractable radioactivity
T5 sequence (F6HTJ4 entry or part of it): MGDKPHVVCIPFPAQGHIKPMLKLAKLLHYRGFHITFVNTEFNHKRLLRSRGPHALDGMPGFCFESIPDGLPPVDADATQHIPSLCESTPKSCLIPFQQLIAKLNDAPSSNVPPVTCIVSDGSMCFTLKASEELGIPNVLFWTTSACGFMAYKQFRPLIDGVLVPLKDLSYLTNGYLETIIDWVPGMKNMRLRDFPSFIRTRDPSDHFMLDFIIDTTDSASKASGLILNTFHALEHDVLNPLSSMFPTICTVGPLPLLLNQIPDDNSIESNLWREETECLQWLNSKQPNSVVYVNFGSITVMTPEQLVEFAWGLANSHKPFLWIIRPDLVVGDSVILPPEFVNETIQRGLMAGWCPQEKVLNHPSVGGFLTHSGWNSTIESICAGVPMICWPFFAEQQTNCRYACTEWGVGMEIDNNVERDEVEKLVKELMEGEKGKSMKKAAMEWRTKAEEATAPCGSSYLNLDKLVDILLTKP
Protocol: as §1, §2, §3

[6] = target: T2, VvGT14a; conditions: for Km: monoterpenols at constant UDP-glucose […], UDP-glucose at fixed geraniol 100 µM, Tris-HCl pH 8.5, 30 °C; for kcat: pH 8.5
[7] = target: T5, VvGT16; assay: Kinetics (KM, kcat) with UDP-[14C]glucose, liquid scintillation counting; conditions: monoterpenes at constant UDP-glucose 512.5 µM; UDP-glucose at fixed geraniol 1.25 mM; Tris-HCl pH 8.5, 30 °C
[8] = target: T2, VvGT14a; assay: Activity based profiling using a physiologic aglycone library (radio-TLC, GC-MS); conditions: Figure 7
Protocol: For the preparation of aglycone extracts 50 g (fresh weight) grape skins or 4 g (fresh weight) inflorescences of Gewurztraminer Gm 11-18 were ground to a fine powder in liquid nitrogen. The isolation of glycosides was carried out as described above (see metabolite analysis). The methanolic fraction, which was obtained after SPE, was enzymatically hydrolysed. Therefore, the dried sample was dissolved in citric-acid buffer (0.1 M, pH 4), 50 mg AR 2000 (an enzyme preparation with glucosidase activity prepared from Aspergillus niger; DSM Food Specialties Beverage Ingredients, Delft, Netherlands) was added and incubated for 24 h with exclusion of light. The liberated aglycones were extracted by 20 mL methyl-tert-butyl ether and the organic phase was reduced to 1000µL using a gentle stream of nitrogen.
Aliquots of this aglycone extract were incubated with UDP-glucose and various VvGT-enzymes. Optimum conditions at 30 °C for 24 hours were applied. Each solution contained 100 µL purified enzyme, 100-150 µL Tris-HCl buffer (100 mM, pH7.5 or 8.5, 10 mM 2-mercaptoethanol), 37 pmol UDP-[^14C]glucose (0.01 µCi) and 50-100 µL extract (dissolved in methyl-tert-butylether). The buffer was mixed with the extract and the organic solvent was gently vaporized with nitrogen. The missing volume was adjusted with buffer before the enzyme was added. The reaction was stopped by adding 1 µL 24% trichloroacetic acid and extracted with 500 µL ethyl acetate. After termination of the reaction free aglycones, which were not converted by VvGT14 and VvGT15, were measured via SPME-(Solid Phase Microextraction)-GC-MS. These residual, free aglycones were completely removed by extraction with dichloromethane. Enzymatically formed glucosides were extracted by ethyl acetate, which was removed under nitrogen. The residue was dissolved in methanol and analyzed by LC-MS to detect the generated monoterpenol glucosides. Enzymatic hydrolysis of the glucosides was performed using AR 2000 and 2 mL citric-acid-buffer. After hydrolysis, a 100 µL aliquot was used to detect volatile aglycones via SPME-GC-MS. The remaining solution was extracted with methyl-tert-butyl ether and reduced under nitrogen to approximately 200 µL. One µL were measured by GC-MS via liquid injection.
Assays containing UDP-[^14C]glucose and aglycone libraries or substrates were performed as described above and subsequently extracted with 500 µL ethyl acetate. The organic solvent was vaporized and the pellet was re-suspended in 10 µL methanol and was applied on Silica Gel 60 F254 plates (Merck, Darmstadt, Germany). The dried plates were developed in a solvent system chloroform:acetic acid:water (50/45/5, v:v:v). Plates were dried and analyzed by digital autoradiograph (digital autoradiograph, EG&G Berthold, Wildbad, Germany).
An aglycone library of the two tissues was obtained by enzymatic hydrolysis of the glycosides followed by liquid-liquid extraction of the released alcohols and acids. […] The formed glycosides were separated by thin layer chromatography (TLC) and visualized by radiodetection whereas identification could be achieved by LC-MS and NMR analysis and, after hydrolysis, by GC-MS and LC-MS (Figure 6).

[9] = target: T1, VvGT15b
Protocol: (§4) The measurements were performed under the following conditions. […] The assay of VvGT15a-c was performed at 30 °C using a Tris-HCl buffer (100 mM, 10 mM 2-mercaptoethanol, pH 7.5) and 10 min (VvGT15c) or 30 min (VvGT15a-b) of incubation for the best substrates. The amount of the purified enzyme and the incubation time were adapted depending on the counting sensibility. The reaction was stopped by adding 1 µL 24% trichloroacetic acid and glucosides were extracted with 100 µL ethyl acetate. Radioactivity was determined by LSC.
(§5) The KM- and vmax-values were calculated from Lineweaver-Burk plots, Hanes-Woolf plots and non-linear fitting of the experimental data.

[10] = target: T3, VvGT15a
Protocol: as §4, §5

[11] = target: T4, VvGT15c
Protocol: as §4, §5

[12] = substrates at fixed UDP-glucose 833 µM, UDP-glucose at constant geraniol 1.25 mM, Tris-HCl pH 7.5, 30 °C
[13] = citronellol enantiomers, Figure 12, highest level of extractable radioactivity = 100 %
[14] = relative to conversion of geraniol (100 %), extractable radioactivity

Compound: CCCCCCCCO [octanol]
conversion of putative substrate (in words) [1]: glucosylated primarily
relative specific activity [2]: > 80%
conversion of putative substrate (in words) [3]: glucosylated primarily
conversion of putative substrate (in words) [4]: glucosylated primarily

Compound: CC(C)=CCO [3-methyl-2-butenol]
conversion of putative substrate (in words) [5]: transformed
conversion of putative substrate (in words) [2]: catalytic activity

Compound: C=CCc1ccc(O)c(OC)c1 [eugenol]
conversion of putative substrate (in words) [2]: catalytic activity

Compound: O=c1c(O)c(-c2ccc(O)cc2)oc2cc(O)cc(O)c12 [kaempferol]
relative specific activity [2]: < 1%

Compound: CC/C=C\CCO [cis 3-hexenol]
conversion of putative substrate (in words) [5]: transformed
conversion of putative substrate (in words) [2]: catalytic activity

Compound: CC(C)=CCC/C(C)=C\CO [Nerol, (Z)-3,7-dimethyl-2,6-octadien-1-ol]
Km [6]: 10 ± 0.7 µM
kcat [6]: 0.02 s⁻¹
Km [7]: 118 ± 4.7 µM
kcat [7]: 0.009 s⁻¹
aglycone liberated by enzymatic hydrolysis of the glucosides formed from the grape skin aglycone library (in words) [8]: remarkable quantities
Km [9, 12]: 40 ± 3.7 µM
kcat [9, 12]: 0.03 s⁻¹
kcat ([10]; pH 7.5): 0.04 s⁻¹
Km [10, 12]: 48 ± 1.7 µM
kcat ([11]; pH 7.5): 0.06 s⁻¹
Km [11, 12]: 28 ± 0.9 µM
conversion of putative substrate (in words) [5]: transformed
conversion of putative substrate (in words) [1]: glucosylated primarily
relative specific activity [2]: > 80%
conversion of putative substrate (in words) [3]: glucosylated primarily
conversion of putative substrate (in words) [4]: glucosylated primarily

Compound: Oc1cc(O)c2cc(O)c(-c3ccc(O)c(O)c3)[o+]c2c1 [cyanidin]
relative specific activity [2]: < 1%

Compound: C=C(C)CCO [3-methyl-3-butenol]
conversion of putative substrate (in words) [2]: catalytic activity

Compound: CC(C)=CCC[C@H](C)CCO [S-citronellol]
Km [9, 12]: 55 ± 1.3 µM
kcat [9, 12]: 0.03 s⁻¹
kcat ([10]; pH 7.5): 0.02 s⁻¹
Km [10, 12]: 29 ± 3 µM
Km [11, 12]: 20 ± 1.6 µM
kcat [11, 12]: 0.03 s⁻¹
efficiency of transformation of R- and S-citronellol (in words) [5]: same efficiency
relative specific activity [1, 13]: 100%
relative specific activity [3, 13]: 100%

Compound: CC(C)=CCCC(C)=CCCC(C)=CCO [farnesol]
conversion of putative substrate (in words) [2]: catalytic activity
conversion of putative substrate (in words) [3]: low activity

Compound: O=c1c(O)c(-c2ccc(O)c(O)c2)oc2cc(O)cc(O)c12 [quercetin]
relative specific activity [2]: < 1%

Compound: OCc1ccccc1 [benzyl alcohol]
aglycone liberated by enzymatic hydrolysis of the glucosides formed from the grape skin aglycone library (in words) [8]: remarkable quantities
relative specific activity [5]: > 80% and 100%
conversion of putative substrate (in words) [2]: catalytic activity

efficiency of transformation of R- and S-citronellol (in words) [5]: same efficiency
Compound: CC(C)=CCC[C@@H](C)CCO [R-citronellol, (R)-(+)-13-citronellol]

Compound: N#CC(O)c1ccccc1 (centres unmarked) [mandelonitrile]
conversion of putative substrate (in words) [2]: catalytic activity

Compound: CC(C)=CCC/C(C)=C/CO [Geraniol, (E)-3,7-dimethyl-2,6-octadien-1-ol]
Km [6]: 9 ± 1.2 µM
kcat [6]: 0.02 s⁻¹
Km [7]: 355 ± 14 µM
kcat [7]: 0.015 s⁻¹
aglycone liberated by enzymatic hydrolysis of the glucosides formed from the grape skin aglycone library (in words) [8]: substantial amount
Michaelis constant, fold greater than the KM values for nerol and S-citronellol [9]: about 2 fold
kcat ([9]; pH 7.5): 0.1 s⁻¹ and 0.10 s⁻¹
Km [9, 12]: 81 µM
Michaelis constant, fold greater than the KM values for nerol and S-citronellol [10]: about 2 fold
kcat ([10]; pH 7.5): 0.12 s⁻¹
Km [10, 12]: 63 µM
Michaelis constant, fold greater than the KM values for nerol and S-citronellol [11]: about 2 fold
kcat ([11]; pH 7.5): 0.17 s⁻¹
Km [11, 12]: 43 µM
relative specific activity [5]: > 80%
relative specific activity [1, 14]: 100%
conversion of putative substrate (in words) [1]: glucosylated primarily
relative specific activity [2]: 100%
conversion of putative substrate (in words) [2]: preferred
relative specific activity [3, 14]: 100%
conversion of putative substrate (in words) [3]: glucosylated primarily
relative specific activity [4, 14]: 100%
conversion of putative substrate (in words) [4]: glucosylated primarily

Compound: CCC/C=C/CO [trans 2-hexenol]
conversion of putative substrate (in words) [5]: transformed
conversion of putative substrate (in words) [2]: catalytic activity
conversion of putative substrate (in words) [3]: able to use
conversion of putative substrate (in words) [4]: able to use

Compound: Oc1ccc(-c2[o+]c3cc(O)cc(O)c3cc2O)cc1 [pelargonodin]
relative specific activity [2]: < 1%

Compound: CCCCCCO [hexanol]
relative specific activity [5]: > 80%
conversion of putative substrate (in words) [1]: glucosylated primarily
relative specific activity [2]: > 80%
conversion of putative substrate (in words) [3]: glucosylated primarily
conversion of putative substrate (in words) [4]: glucosylated primarily

Compound: C=CC(C)(O)CCC=C(C)CO (centres unmarked) [8-hydroxylinalool]
Km [6]: 48 ± 2 µM
kcat [6]: 0.002 s⁻¹
Km [9, 12]: 33 ± 1.8 µM
kcat [9, 12]: 0.003 s⁻¹
Km [10, 12]: 32 ± 1.4 µM
kcat [10, 12]: 0.003 s⁻¹
kcat ([11]; pH 7.5): 0.004 s⁻¹
Km [11, 12]: 17 ± 0.2 µM
conversion of putative substrate (in words) [2]: catalytic activity
conversion of putative substrate (in words) [3]: able to use
conversion of putative substrate (in words) [4]: able to use
